Results: patent US20120135013A1, “CD45 and Methods and Compounds Related Thereto” (priority 2007, published 2012)

Assays:
[1] = target: LF (Bacillus anthracis, UniProt P15917); format: biochemical
[2] = target: T1, CD45 (Homo sapiens, UniProt P08575); experiment: biochemical; conditions: read-out: inhibition of the phosphatase activity of CD45
T1 construct: purchased Upstate (Lake Placid, N.Y.)
T1 sequence (P08575 26-1306): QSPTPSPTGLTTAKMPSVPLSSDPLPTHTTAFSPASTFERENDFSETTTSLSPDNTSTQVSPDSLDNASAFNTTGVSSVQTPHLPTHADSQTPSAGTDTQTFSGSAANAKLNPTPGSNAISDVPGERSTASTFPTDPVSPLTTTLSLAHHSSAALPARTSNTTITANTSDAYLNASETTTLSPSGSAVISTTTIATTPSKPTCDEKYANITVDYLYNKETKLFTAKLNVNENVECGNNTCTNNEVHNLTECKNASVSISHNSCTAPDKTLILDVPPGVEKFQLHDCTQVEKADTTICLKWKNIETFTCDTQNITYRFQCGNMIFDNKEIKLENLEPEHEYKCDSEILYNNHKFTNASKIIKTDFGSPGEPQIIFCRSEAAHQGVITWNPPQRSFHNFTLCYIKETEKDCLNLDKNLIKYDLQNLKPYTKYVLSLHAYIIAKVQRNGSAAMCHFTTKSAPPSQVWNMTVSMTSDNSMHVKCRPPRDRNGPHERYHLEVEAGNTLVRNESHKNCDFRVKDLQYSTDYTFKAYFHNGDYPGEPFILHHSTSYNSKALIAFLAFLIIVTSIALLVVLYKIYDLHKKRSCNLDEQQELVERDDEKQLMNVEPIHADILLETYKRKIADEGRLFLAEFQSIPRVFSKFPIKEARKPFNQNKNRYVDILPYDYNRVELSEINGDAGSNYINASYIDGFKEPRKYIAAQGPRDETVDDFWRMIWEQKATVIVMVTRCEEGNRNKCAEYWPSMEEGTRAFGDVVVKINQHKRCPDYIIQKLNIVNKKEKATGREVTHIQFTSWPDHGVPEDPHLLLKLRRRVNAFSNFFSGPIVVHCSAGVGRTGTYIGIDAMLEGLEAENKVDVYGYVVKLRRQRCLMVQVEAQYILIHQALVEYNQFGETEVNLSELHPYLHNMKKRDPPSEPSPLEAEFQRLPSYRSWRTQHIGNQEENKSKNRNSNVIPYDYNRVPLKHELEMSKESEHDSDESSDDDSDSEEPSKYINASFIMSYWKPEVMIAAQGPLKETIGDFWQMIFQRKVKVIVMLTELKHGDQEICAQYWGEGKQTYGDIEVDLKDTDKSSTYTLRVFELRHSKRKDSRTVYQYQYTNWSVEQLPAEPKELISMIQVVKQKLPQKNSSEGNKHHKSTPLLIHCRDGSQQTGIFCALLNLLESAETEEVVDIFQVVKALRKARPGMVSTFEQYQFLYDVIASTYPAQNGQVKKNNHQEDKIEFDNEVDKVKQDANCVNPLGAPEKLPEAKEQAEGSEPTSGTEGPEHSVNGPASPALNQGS

[3] = tested on: Sterne B. anthracis spores; format: cell-based; conditions: 10 μM
[4] = target: T2, Cdc25B (Homo sapiens, UniProt P30305); conditions: Lazo et al. (2002); cited from earlier work
T2 sequence (P30305 1-580): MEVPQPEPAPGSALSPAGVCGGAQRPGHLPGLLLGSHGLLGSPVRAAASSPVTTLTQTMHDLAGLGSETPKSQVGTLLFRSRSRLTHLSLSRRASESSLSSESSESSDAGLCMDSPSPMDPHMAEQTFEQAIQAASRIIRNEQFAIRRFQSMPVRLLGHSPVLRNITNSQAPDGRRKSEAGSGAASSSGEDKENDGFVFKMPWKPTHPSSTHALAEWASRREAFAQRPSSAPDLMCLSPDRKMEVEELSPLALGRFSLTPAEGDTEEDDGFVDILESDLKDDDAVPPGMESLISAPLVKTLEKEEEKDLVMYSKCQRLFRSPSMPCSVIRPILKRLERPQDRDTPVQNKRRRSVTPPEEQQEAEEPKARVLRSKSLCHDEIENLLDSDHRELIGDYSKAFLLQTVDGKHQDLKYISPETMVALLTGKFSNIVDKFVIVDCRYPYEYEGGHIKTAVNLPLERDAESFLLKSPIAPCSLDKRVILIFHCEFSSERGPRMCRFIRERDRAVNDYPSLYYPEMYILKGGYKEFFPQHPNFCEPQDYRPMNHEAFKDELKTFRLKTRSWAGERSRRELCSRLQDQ

[5] = tested on: proteasome; format: biochemical, mouse
[6] = target: T2, Cdc25B; experiment: biochemical; conditions: read-out: % Inhibition (cdc25B)
[7] = tested on: Ames B. anthracis spores; conditions: in vivo
[8] = tested on: CD45; experiment: immunoblot of CD45 protein levels; format: cell-based, mouse; conditions: 72 hours, vs untreated or scrambled PMO
[9] = tested on: CD45; experiment: CD45 phosphatase activity after immunoprecipitation from cell lysates; format: cell-based, mouse; conditions: 8 μM, 72 hours
[10] = tested on: MEK; format: cell-based, mouse

LF, sequence (P15917 34-809 limits assumed): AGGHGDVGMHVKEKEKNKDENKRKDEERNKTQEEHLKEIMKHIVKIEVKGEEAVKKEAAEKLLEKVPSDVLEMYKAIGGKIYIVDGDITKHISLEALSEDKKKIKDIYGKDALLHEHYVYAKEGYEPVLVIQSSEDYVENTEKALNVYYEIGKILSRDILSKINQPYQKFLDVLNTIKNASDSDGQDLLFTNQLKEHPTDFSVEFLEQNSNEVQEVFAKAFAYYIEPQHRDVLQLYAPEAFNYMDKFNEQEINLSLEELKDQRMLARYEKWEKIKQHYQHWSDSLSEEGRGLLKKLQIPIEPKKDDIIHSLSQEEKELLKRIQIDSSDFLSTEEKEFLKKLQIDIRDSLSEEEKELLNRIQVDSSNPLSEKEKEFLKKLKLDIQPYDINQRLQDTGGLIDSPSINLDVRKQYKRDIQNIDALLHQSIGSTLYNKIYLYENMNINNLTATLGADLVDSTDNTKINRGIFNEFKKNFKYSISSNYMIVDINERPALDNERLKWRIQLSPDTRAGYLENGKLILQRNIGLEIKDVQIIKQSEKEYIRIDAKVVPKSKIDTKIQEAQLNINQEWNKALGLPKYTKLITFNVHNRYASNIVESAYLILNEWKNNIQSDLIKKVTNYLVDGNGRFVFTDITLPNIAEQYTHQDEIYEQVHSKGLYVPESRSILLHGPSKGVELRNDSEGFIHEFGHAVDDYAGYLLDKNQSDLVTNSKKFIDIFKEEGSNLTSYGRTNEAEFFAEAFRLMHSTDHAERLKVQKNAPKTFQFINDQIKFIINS

Compound	inhibition of LF enzymatic activity (cleavage of peptide substrate) [1]	anti-microbial activity (growth of the bacteria) [3]	inhibition of Cdc25, previously reported [4]	inhibition of proteasome activity [5]	inhibition at 10 µM [6] [%]	other results
O=C1C(SCCO)=C(SCCO)C(=O)c2ccccc21 [NSC 95397]	None of the compounds were observed to inhibit	do not inhibit the growth of the bacteria	previously reported to inhibit Cdc25	neither NSC 95397 nor NSC 270012 inhibited proteasome activity	83	inhibition at 10 µM [2]: ~94%
Cc1ccc2c(c1C)-c1c(ccc(C)c1C)C(=O)C2=O [NSC 135880]	None of the compounds were observed to inhibit		previously reported to inhibit Cdc25		99	
O=C1C=C(SCCO)C(=O)c2ccccc21 [NSC 148596]	None of the compounds were observed to inhibit				67	
NC(=O)CCSC1=CC(=O)c2ccccc2C1=O [NSC 270011]	None of the compounds were observed to inhibit				25	
NC(=O)CCCSC1=CC(=O)c2ccccc2C1=O [NSC 270012]	None of the compounds were observed to inhibit	do not inhibit the growth of the bacteria		neither NSC 95397 nor NSC 270012 inhibited proteasome activity	72	
CD45 PMO (CCACAAACCCATGGTCATATC; all phosphorodiamidate morpholino (PMO))						antibody titers in surviving mice [7]: developed protective antigen specific and lethal toxin neutralizing antibody titers; protection on re-challenge with Ames B. anthracis spores [7]: completely protected; survival ([7]; 100 mg/kg/day): greatly increased; CD45 protein levels by immunoblot [8]: dose dependent reduction; CD45 phosphatase activity following immunoprecipitation [9]: concomitant reduction in CD45 phosphatase activity; MEK cleavage [10]: MEK cleavage was not prevented
